The record followed here is publication PMC4129416, “YLT192, a Novel, Orally Active Bioavailable Inhibitor of VEGFR2 Signaling with Potent Antiangiogenic Activity and Antitumor Efficacy in Preclinical Models” (Scientific Reports, 2014).

Data set [1] has as its system HCT116. The experiment in a line: Inhibition of tumor cell growth. It counts as cell-based. Particulars: HCT-116; HCT116, human colorectal carcinoma; 48 hour treatment; means ± SD, n=3. The source says:
Data are means ± SD, n=3.
cell line cell type IC50(μM)

The subject of data set [2] is A2058. Kind of data set: Inhibition of tumor cell growth. Format: cell-based. Conditions: A2058, human melanoma; 48 hour treatment; means ± SD, n=3. How it is done:
(§1) The proliferative inhibitory ability of YLT192 on tumor cells was investigated. […] Inhibition of cell proliferation is a possible approach for cancer treatment. EdU incorporation assay was performed to investigate the anti-proliferative effects of YLT192 against U251 and HCT116 cells.
(§2) treatment with YLT192. Data are means ± SD, n=3.

Data set [3] concerns A875. Kind of data set: Inhibition of tumor cell growth. Format: cell-based. Particulars: A875, human melanoma; 48 hour treatment; means ± SD, n=3. On the procedure:
as §1, §2

Data set [4] deals with Hep G2. The experiment in a line: Inhibition of tumor cell growth. Particulars: HepG2; Hep G2, human hepatocellular carcinoma; 48 hour treatment; means ± SD, n=3. It counts as cell-based. How it is done:
as §1, §2
(§3) cell line cell type IC50(μM) […]

Data set [5] has as its system BxPC-3. The experiment in a line: Inhibition of tumor cell growth. Format: cell-based. Conditions: BxPC-3, human pancreatic cancer; 48 hour treatment; means ± SD, n=3. How it is done:
as §1, §2, §3

Data set [6] deals with HUVEC. The experiment in a line: Capillary-like tube formation assay. It counts as cell-based, human. Conditions: designed concentrations; 6 hours; Matrigel. How it is done:
To elucidate the possible mechanisms of angiogenesis inhibition, tube formation ability of ECs, which is a critical step in the process of angiogenesis, was assessed in HUVEC in vitro.
The anti-angiogenesis ability of YLT192 in vitro was evaluated using capillary tube formation assay as described previously. Briefly, 96-well plate was pre-incubated with Matrigel at 37°C for 45 minutes. Then HUVECs (2 × 10^4 cells) suspended in EGM2 medium were seeded onto the Matrigel. They were treated with various concentrations of YLT192. After 6 hours incubation at 37°C, tube formation was assessed with an OLYMPUS inverted digital camera in low power fields (50×). Vandetanib served as positive control. The assay was replicated 3 times.

Data set [7] relates to PI3K. Kind of data set: Radiometric kinase assay (Millipore Kinase Profile Service). Format: biochemical. Conditions: means ± SD, two independent experiments. How it is done:
(§4) YLT192 was designed and synthesized in the State Key Laboratory of Biotherapy, Sichuan University (Sichuan, China). Its structural formula and synthesis route was shown in Fig. 1A and Supplementary Figure S1, respectively. The kinase inhibitory activity of YLT192 was measured by the use of radiometric assays provided by Kinase Profile Service (Millipore, UK). The effects of YLT192 on kinase activity were detected using the scintillation proximity assay method at an enzymatic level. […] In addition, the inhibitory activity of YLT192 was examined against platelet-derived growth factor receptor (PDGFR)-related kinases because of their structural similarity to the VEGFR2. […] Moreover, excellent selectivity for VEGFR2 was evident compared with a range of unrelated tyrosine and serine/threonine kinases, including fibroblast growth factor receptor 3, polo-like kinase 1, aurora-A, Axl, MET, protein kinase A, c-RAF etc.

The target in data set [8] is T1, cKit (Homo sapiens, UniProt P10721).
T1 construct: purchased Millipore (Kinase Profile Service, UK)
T1 sequence (P10721 26-976): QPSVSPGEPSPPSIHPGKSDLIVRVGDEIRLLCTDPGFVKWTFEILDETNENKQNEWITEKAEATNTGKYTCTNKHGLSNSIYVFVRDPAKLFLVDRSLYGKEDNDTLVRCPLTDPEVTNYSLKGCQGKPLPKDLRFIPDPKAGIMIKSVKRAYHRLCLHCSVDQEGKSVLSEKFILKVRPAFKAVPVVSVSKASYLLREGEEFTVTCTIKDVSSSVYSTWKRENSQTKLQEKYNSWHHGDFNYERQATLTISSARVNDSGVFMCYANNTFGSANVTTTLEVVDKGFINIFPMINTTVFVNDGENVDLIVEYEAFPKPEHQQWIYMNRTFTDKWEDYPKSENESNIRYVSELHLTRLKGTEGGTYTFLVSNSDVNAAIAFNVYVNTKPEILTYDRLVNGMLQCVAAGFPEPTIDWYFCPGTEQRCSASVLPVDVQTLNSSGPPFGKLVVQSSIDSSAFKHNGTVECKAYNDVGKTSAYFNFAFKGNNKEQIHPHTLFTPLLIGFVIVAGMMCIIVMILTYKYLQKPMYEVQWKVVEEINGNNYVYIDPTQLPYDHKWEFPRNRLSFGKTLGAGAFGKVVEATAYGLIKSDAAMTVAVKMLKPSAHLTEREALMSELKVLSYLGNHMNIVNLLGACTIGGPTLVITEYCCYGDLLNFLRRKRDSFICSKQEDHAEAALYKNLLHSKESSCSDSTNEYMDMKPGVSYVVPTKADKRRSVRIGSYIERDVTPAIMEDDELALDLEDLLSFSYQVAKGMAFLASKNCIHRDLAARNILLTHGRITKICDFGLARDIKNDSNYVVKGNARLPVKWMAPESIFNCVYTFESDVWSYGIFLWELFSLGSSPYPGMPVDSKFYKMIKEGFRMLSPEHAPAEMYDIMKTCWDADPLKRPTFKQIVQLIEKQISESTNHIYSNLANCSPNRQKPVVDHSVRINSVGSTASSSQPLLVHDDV
The data set is described as above. It counts as biochemical. Conditions: means ± SD, two independent experiments, read-out: inhibition rate at 1 μM (%). On the procedure: as §4

Data set [9] deals with T2, IR (Homo sapiens, UniProt P06213).
T2 construct: purchased Millipore (Kinase Profile Service, UK)
T2 sequence (P06213 28-1382): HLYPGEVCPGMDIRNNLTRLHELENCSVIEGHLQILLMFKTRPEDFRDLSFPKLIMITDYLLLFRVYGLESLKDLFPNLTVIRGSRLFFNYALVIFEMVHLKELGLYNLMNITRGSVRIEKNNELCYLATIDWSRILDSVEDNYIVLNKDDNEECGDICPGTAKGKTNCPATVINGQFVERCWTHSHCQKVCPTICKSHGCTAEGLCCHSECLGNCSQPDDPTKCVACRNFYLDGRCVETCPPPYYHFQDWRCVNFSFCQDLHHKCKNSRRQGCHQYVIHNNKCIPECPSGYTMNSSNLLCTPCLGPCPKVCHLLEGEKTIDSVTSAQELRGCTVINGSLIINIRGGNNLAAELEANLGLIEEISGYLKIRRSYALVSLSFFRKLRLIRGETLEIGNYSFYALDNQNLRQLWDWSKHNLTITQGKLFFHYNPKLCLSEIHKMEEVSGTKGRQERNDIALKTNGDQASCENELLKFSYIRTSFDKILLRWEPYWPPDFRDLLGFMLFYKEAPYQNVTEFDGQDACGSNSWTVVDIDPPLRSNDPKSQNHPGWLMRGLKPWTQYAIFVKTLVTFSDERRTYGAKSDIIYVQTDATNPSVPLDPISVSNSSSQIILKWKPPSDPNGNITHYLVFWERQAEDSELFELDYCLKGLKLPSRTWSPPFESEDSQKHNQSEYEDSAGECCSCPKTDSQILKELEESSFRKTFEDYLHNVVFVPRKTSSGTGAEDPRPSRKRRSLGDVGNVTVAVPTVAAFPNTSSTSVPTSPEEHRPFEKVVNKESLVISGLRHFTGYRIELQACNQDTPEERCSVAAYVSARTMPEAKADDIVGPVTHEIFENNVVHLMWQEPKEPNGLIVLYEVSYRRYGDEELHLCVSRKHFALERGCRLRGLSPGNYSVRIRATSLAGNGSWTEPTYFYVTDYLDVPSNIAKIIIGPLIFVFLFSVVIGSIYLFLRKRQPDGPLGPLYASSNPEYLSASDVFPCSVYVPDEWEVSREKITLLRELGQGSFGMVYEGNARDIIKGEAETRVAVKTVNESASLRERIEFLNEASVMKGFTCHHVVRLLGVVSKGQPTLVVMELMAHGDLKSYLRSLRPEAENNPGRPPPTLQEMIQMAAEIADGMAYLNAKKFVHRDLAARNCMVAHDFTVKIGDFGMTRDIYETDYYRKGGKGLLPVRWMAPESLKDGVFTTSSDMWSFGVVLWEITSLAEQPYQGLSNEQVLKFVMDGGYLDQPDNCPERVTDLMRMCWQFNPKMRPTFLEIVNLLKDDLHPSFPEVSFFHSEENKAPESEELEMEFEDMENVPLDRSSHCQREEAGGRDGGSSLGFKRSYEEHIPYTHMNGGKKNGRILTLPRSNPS
The data set is described as above. It counts as biochemical. Conditions: means ± SD, two independent experiments, read-out: inhibition rate at 1 μM (%). How it is done:
as §4

The target of data set [10] is T3, PDGFRβ (Homo sapiens, UniProt P09619).
T3 construct: purchased Millipore (Kinase Profile Service, UK)
T3 sequence (P09619 33-1106): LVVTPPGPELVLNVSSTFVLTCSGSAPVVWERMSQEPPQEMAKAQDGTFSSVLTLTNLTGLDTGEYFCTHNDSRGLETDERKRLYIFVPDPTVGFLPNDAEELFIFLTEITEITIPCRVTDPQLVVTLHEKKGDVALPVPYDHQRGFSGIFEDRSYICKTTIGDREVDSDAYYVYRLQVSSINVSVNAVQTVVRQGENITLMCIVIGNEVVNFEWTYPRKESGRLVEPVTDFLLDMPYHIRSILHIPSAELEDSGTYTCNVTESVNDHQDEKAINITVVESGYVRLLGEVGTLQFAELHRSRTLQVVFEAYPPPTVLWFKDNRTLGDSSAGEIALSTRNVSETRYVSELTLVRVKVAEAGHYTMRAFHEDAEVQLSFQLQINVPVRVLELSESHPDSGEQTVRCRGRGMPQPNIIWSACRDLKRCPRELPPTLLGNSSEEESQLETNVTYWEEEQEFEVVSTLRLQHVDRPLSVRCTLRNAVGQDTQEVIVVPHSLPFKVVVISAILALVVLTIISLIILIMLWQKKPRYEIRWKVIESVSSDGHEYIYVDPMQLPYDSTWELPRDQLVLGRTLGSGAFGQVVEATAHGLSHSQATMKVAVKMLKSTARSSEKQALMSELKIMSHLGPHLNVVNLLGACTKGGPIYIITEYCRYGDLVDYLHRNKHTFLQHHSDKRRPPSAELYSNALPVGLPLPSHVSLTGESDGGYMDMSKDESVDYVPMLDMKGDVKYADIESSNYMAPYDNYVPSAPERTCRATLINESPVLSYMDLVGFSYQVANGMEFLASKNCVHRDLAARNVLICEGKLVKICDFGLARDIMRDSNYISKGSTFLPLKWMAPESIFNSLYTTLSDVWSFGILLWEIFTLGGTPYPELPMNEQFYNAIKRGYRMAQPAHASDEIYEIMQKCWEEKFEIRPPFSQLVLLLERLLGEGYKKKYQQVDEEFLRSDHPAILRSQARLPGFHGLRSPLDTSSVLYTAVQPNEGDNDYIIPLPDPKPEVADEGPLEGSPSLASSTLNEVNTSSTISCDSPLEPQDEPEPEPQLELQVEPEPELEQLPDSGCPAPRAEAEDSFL
Described as above. It counts as biochemical. Particulars: means ± SD, two independent experiments, read-out: inhibition rate at 1 μM (%). How it is done: as §4

Data set [11] concerns the target T4, PKA (Homo sapiens, UniProt P17612).
T4 construct: purchased Millipore (Kinase Profile Service, UK)
The data set is described as above. Format: biochemical. Conditions: means ± SD, two independent experiments, read-out: inhibition rate at 1 μM (%). How it is done: as §4

Data set [12] has as its target T5, Aurora-A (Homo sapiens, UniProt O14965).
T5 construct: purchased Millipore (Kinase Profile Service, UK)
The data set is described as above. Format: biochemical. Conditions: means ± SD, two independent experiments, read-out: inhibition rate at 1 μM (%). How it is done: as §4

In data set [13] the target is T6, LCK (Homo sapiens, UniProt P06239).
T6 construct: purchased Millipore (Kinase Profile Service, UK)
The data set is described as above. It counts as biochemical. Conditions: means ± SD, two independent experiments, read-out: inhibition rate at 1 μM (%). On the procedure: as §4

The target of data set [14] is T7, mTOR (Homo sapiens, UniProt P42345).
T7 construct: purchased Millipore (Kinase Profile Service, UK)
Described as above. It counts as biochemical. Conditions: means ± SD, two independent experiments, read-out: inhibition rate at 1 μM (%). How it is done: as §4

Data set [15] addresses T8, JAK3 (Homo sapiens, UniProt P52333).
T8 construct: purchased Millipore (Kinase Profile Service, UK)
The data set is described as above. It counts as biochemical. Particulars: means ± SD, two independent experiments, read-out: inhibition rate at 1 μM (%). How it is done:
as §4

Data set [16] deals with T9, FGFR1 (Homo sapiens, UniProt P11362).
T9 construct: purchased Millipore (Kinase Profile Service, UK)
The description is as above. Particulars: means ± SD, two independent experiments, read-out: inhibition rate at 1 μM (%). Format: biochemical. How it is done: as §4

Data set [17] addresses T10, Plk1 (Homo sapiens, UniProt P53350).
T10 construct: purchased Millipore (Kinase Profile Service, UK)
Described as above. Conditions: means ± SD, two independent experiments, read-out: inhibition rate at 1 μM (%). Format: biochemical. How it is done: as §4

In data set [18] the target is T11, Met (Homo sapiens, UniProt P08581).
T11 construct: purchased Millipore (Kinase Profile Service, UK)
Described as above. It counts as biochemical. Conditions: means ± SD, two independent experiments, read-out: inhibition rate at 1 μM (%). How it is done:
as §4

Data set [19] addresses T12, IKKβ (Homo sapiens, UniProt O14920).
T12 construct: purchased Millipore (Kinase Profile Service, UK)
The description is as above. It counts as biochemical. Particulars: means ± SD, two independent experiments, read-out: inhibition rate at 1 μM (%). How it is done: as §4

The target in data set [20] is T13, Ret (Homo sapiens, UniProt P07949).
T13 construct: purchased Millipore (Kinase Profile Service, UK)
The data set is described as above. Particulars: means ± SD, two independent experiments, read-out: inhibition rate at 1 μM (%). It counts as biochemical. How it is done: as §4

Data set [21] in a line: Body weight of tumor-bearing mice during treatment. Format: in vivo. Conditions: U251 and HCT116 tumor-bearing mice; 25, 50 and 100 mg/kg oral daily. How it is done: Figure 5 Anti-tumor activities of YLT192 in vivo. (A) U251 and HCT116 tumor-bearing mice were treated orally with YLT192 at 25, 50 and 100 mg/kg or vehicle daily, respectively. […] (B) Body weight changes in YLT192 and vehicle treated mice. […] For A and B, data are means ± SD. (C) and (D), YLT192 inhibited tumor cell proliferation in HCT116 tumor tissues in vivo. Mice bearing HCT116 tumor xenograft were treated with YLT192 at 50 and 100 mg/kg or vehicle and sacrificed at the end of the experiment. The tumor tissues were removed for further immunohistochemistry analysis using anti-Ki67 (C) and anti-p-p44/42 MAPK antibodies (D). (E) YLT192 induced tumor cell apoptosis in HCT116 tumor in vivo. Apoptosis was measured by TUNEL staining (n = 6 mice per group). Scale bars represent 100 μm.
All animal experiments were approved and conducted by the Institutional Animal Care and Treatment Committee of Sichuan University in China (Permit Number: 20121205). […] Tumor growth and body weight was measured every three days during the treatment. Tumor volumes were calculated using the formula as follow: volume (mm^3) = 0.5 × length (mm) × width (mm)^2. Growth inhibition was calculated from the start of treatment by comparison of the mean change in tumor volume for vehicle and treated group as before.

T12 sequence (O14920 whole entry): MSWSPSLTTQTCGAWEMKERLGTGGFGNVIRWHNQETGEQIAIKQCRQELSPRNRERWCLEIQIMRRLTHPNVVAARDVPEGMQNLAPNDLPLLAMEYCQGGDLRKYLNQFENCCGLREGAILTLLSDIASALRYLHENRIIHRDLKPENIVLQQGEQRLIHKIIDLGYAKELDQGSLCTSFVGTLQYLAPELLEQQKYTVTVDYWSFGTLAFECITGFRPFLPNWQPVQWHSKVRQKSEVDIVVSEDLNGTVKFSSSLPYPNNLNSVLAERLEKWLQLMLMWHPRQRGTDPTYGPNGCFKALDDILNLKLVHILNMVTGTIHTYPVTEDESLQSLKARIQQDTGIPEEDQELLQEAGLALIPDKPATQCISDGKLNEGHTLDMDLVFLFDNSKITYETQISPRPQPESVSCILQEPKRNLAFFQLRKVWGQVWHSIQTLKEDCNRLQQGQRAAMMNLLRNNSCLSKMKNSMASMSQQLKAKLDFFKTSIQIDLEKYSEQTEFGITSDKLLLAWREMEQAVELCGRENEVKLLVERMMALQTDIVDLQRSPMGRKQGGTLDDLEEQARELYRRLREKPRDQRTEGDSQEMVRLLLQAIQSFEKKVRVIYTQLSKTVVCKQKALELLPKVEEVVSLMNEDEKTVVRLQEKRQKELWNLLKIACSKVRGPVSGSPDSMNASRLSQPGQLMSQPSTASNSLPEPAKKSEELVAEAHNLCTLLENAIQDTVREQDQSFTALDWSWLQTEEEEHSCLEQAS
T10 sequence (P53350 whole entry): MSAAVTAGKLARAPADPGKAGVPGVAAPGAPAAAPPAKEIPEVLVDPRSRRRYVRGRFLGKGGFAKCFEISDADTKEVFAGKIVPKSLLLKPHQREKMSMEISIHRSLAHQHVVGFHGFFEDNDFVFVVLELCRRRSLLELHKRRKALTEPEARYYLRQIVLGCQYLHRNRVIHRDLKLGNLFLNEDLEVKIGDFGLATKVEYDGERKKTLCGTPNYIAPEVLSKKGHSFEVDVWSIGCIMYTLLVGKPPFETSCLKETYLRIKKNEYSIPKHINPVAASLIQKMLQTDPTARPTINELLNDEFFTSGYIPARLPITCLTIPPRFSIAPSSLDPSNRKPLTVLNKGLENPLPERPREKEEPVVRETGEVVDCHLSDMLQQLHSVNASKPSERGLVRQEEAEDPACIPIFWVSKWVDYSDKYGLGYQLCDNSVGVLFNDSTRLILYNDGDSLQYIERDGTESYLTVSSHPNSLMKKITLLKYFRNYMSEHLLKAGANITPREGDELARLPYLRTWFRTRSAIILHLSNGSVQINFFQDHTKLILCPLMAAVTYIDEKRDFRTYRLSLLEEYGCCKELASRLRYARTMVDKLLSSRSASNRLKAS

As to `CNC(=O)c1cc(Oc2ccc(NC(=O)c3cccc(OC)c3)cc2)ccn1` [YLT192], the IC50 was determined as 7.4 ± 0.5 µM in data set [1]; 10.7 ± 1.1 µM in [2]; 14.1 ± 2.1 µM in [3]; 7.9 ± 0.5 µM in data set [4]; 8.2 ± 0.6 µM in [5]. Further, in data set [6], the “tube formation of HUVEC” value is “strongly inhibited”. In data set [7], the “inhibition rate at 1 μM (%)” value was 0 ± 2%. Also, the inhibition at 1 µM was 6 ± 3% in data set [8]; 3 ± 3% in data set [9]; 7 ± 8% in [10]; -10 ± 4% in data set [11]; -1 ± 4% in data set [12]; 3 ± 6% in [13]. Besides, the inhibition at 1 µM is 0% in data set [14]; -7 ± 4% in data set [15]; 21 ± 3% in [16]; 1 ± 3% in [17]; -2 ± 6% in data set [18]; 2 ± 6% in data set [19]. Further, the inhibition at 1 µM in data set [20] worked out at 23 ± 3%. For the same compound, the “body weight vs vehicle group” value in data set [21] was “no significant difference”.

As usually defined, the IC50 is the point on the concentration scale where inhibition reaches its midpoint. Low readings indicate greater potency, high ones weaker potency. The term inhibition denotes the drop in the measured response relative to a control, in per cent.
